Marks after values point to notes of the source that are not given here.
Assays:
[1] = test system: NCI-H322 (non-small cell lung carcinoma); experiment: NCI H322 subcutaneous human xenograft mouse model, tumor growth; format: in vivo, SCID mice; conditions: for tumor growth inhibition: monotherapy, FIG. 2, range over doses
Description: NCI H322 cells obtained from the ATCC and were cultured in RPMI 1640+10% Fetal bovine serum, Sodium pyruvate and L-Glutamine at […] in a 95/5% air/CO2 atmosphere. Cells were harvested following trypsin digestion and brought to a density of 2×10^6 cells/200 μl in PBS. Tumors were initiated by injection of the cell suspension subcutaneously in the axillary region. In addition some experiments were performed following serial transplantation of tumor fragments in SCID mice. Tumors were initiated by injection of tumor fragments subcutaneously in the axillary region.
(§1) For the xenograft models used here, solid tumors were measured by electronic caliper measurement through the skin. Measurements were typically made twice weekly.
Drugs were administered by P.O. route. […] These studies were performed under IACUC #468 and 603.
Data are presented as percent inhibition of tumor growth, as compared to vehicle.

[2] = test system: BT474 (human breast tumor line); experiment: BT474 subcutaneous human xenograft mouse model, tumor growth; format: in vivo, SCID mice; conditions: for tumor growth inhibition: monotherapy, FIG. 1, range over doses
Description: The BT474 xenografts were maintained by serial transplantation of tumor fragments in SCID mice. Tumors are initiated by injection of tumor fragments subcutaneously in the axillary region.
as §1
Drugs were administered by P.O. route. […] These studies were performed under IACUC #468 and 603. The results are illustrated in Tables 1-4, and FIGS. 1 and 2. FIGS. 1 and 2 are the graphical representation of the data contained in Tables 3 and 4, respectively.
The column labeled “Exp. 1” contains the results presented in FIG. 1 for the last data point on the graph. The column labeled “Exp. 2” contains analogous results from an independent experiment. Data are presented as percent inhibition of tumor growth, as compared to vehicle.

[3] = Exp. 1, Example 1 30 mg/kg P.O. once daily
[4] = Exp. 1, Example 1 100 mg/kg P.O. once daily
[5] = Exp. 2, Example 1 30 mg/kg P.O. once daily
[6] = Exp. 2, Example 1 100 mg/kg P.O. once daily
[7] = Exp. 1, Example 3 60 mg/kg P.O. once daily

**Q.** How did the Mean tumor volume ([1]; Day 29, Ex. 1 30 mg/kg) turn out when `Cc1ccc(Nc2nccc(N(C)c3ccc4c(C)n(C)nc4c3)n2)cc1S(N)(=O)=O` [Example 1, 5-({4-[(2,3-dimethyl-2H-indazol-6-yl)(methyl)amino]pyrimidin-2-yl}amino)-2-methylbenzenesulfonamide] was run?
**A.** 182 mm^3

**Q.** What about the Mean tumor volume ([1]; Day 29, Ex. 1 100 mg/kg) of the same compound?
**A.** 166 mm^3

**Q.** And the Mean tumor volume ([1]; Day 34, Ex. 1 30 mg/kg)?
**A.** 351 mm^3

**Q.** What about the Mean tumor volume ([1]; Day 34, Ex. 1 100 mg/kg) of the same compound?
**A.** 268 mm^3

**Q.** What about the Mean tumor volume ([1]; Day 37, Ex. 1 30 mg/kg) of the same compound?
**A.** 358 mm^3

**Q.** What about the Mean tumor volume ([1]; Day 37, Ex. 1 100 mg/kg) of the same compound?
**A.** 266 mm^3

**Q.** What about the Mean tumor volume ([1]; Day 41, Ex. 1 30 mg/kg) of the same compound?
**A.** 329 mm^3

**Q.** And the Mean tumor volume ([1]; Day 41, Ex. 1 100 mg/kg)?
**A.** 316 mm^3

**Q.** And the Mean tumor volume ([1]; Day 44, Ex. 1 30 mg/kg)?
**A.** 309 mm^3

**Q.** What about the Mean tumor volume ([1]; Day 44, Ex. 1 100 mg/kg) of the same compound?
**A.** 312 mm^3

**Q.** And the Mean tumor volume ([1]; Day 48, Ex. 1 30 mg/kg)?
**A.** 377 mm^3

**Q.** And the Mean tumor volume ([1]; Day 48, Ex. 1 100 mg/kg)?
**A.** 297 mm^3

**Q.** What about the Mean tumor volume ([1]; Day 51, Ex. 1 30 mg/kg) of the same compound?
**A.** 389 mm^3

**Q.** What about the Mean tumor volume ([1]; Day 51, Ex. 1 100 mg/kg) of the same compound?
**A.** 313 mm^3

**Q.** And the “percent inhibition of tumor growth, as compared to vehicle” value (“percent inhibition of tumor growth” below) [1, 3]?
**A.** 34%

**Q.** What about the “percent inhibition of tumor growth” value [1, 4] of the same compound?
**A.** 56* %

**Q.** What about the “percent inhibition of tumor growth” value [1, 5] of the same compound?
**A.** 20%

**Q.** And the “percent inhibition of tumor growth” value [1, 6]?
**A.** 62%

**Q.** And the “percent inhibition of tumor growth” value ([1]; Exp. 3, Example 1 30 mg/kg P.O. once daily)?
**A.** 86* %

**Q.** And the “percent inhibition of tumor growth” value ([1]; Exp. 3, Example 1 100 mg/kg P.O. once daily)?
**A.** 88* %

**Q.** What about the tumor growth inhibition [1] of the same compound?
**A.** 86-88%

**Q.** What about the Mean tumor volume ([2]; Day 36, Ex. 1 30 mg/kg) of the same compound?
**A.** 281 mm^3

**Q.** And the Mean tumor volume ([2]; Day 36, Ex. 1 100 mg/kg)?
**A.** 293 mm^3

**Q.** What about the Mean tumor volume ([2]; Day 38, Ex. 1 30 mg/kg) of the same compound?
**A.** 406 mm^3

**Q.** What about the Mean tumor volume ([2]; Day 38, Ex. 1 100 mg/kg) of the same compound?
**A.** 417 mm^3

**Q.** And the Mean tumor volume ([2]; Day 41, Ex. 1 30 mg/kg)?
**A.** 481 mm^3

**Q.** And the Mean tumor volume ([2]; Day 41, Ex. 1 100 mg/kg)?
**A.** 453 mm^3

**Q.** And the Mean tumor volume ([2]; Day 44, Ex. 1 30 mg/kg)?
**A.** 601 mm^3

**Q.** And the Mean tumor volume ([2]; Day 44, Ex. 1 100 mg/kg)?
**A.** 519 mm^3

**Q.** And the Mean tumor volume ([2]; Day 49, Ex. 1 30 mg/kg)?
**A.** 722 mm^3

**Q.** What about the Mean tumor volume ([2]; Day 49, Ex. 1 100 mg/kg) of the same compound?
**A.** 519 mm^3

**Q.** What about the Mean tumor volume ([2]; Day 52, Ex. 1 30 mg/kg) of the same compound?
**A.** 777 mm^3

**Q.** What about the Mean tumor volume ([2]; Day 52, Ex. 1 100 mg/kg) of the same compound?
**A.** 515 mm^3

**Q.** What about the Mean tumor volume ([2]; Day 55, Ex. 1 30 mg/kg) of the same compound?
**A.** 860 mm^3

**Q.** What about the Mean tumor volume ([2]; Day 55, Ex. 1 100 mg/kg) of the same compound?
**A.** 496 mm^3

**Q.** What about the Mean tumor volume ([2]; Day 57, Ex. 1 30 mg/kg) of the same compound?
**A.** 954 mm^3

**Q.** And the Mean tumor volume ([2]; Day 57, Ex. 1 100 mg/kg)?
**A.** 513 mm^3

**Q.** And the “percent inhibition of tumor growth” value [2, 3]?
**A.** 16%

**Q.** What about the “percent inhibition of tumor growth” value [2, 4] of the same compound?
**A.** 78* %

**Q.** And the “percent inhibition of tumor growth” value [2, 5]?
**A.** 47* %

**Q.** And the “percent inhibition of tumor growth” value [2, 6]?
**A.** 64* %

**Q.** And the tumor growth inhibition [2]?
**A.** 16-78%

**Q.** Which Mean tumor volume ([1]; Day 29, Ex. 3 20 mg/kg) does the source give for `CS(=O)(=O)CCNCc1ccc(-c2ccc3ncnc(Nc4ccc(OCc5cccc(F)c5)c(Cl)c4)c3c2)o1` [Example 3, N-{3-Chloro-4-[(3-fluorobenzyl)oxy]phenyl}-6-[5-({[2-(methanesulphonyl)ethyl]amino}methyl)-2-furyl]-4-quinazolinamine] here?
**A.** 167 mm^3

**Q.** And the Mean tumor volume ([1]; Day 29, Ex. 3 60 mg/kg)?
**A.** 175 mm^3

**Q.** What about the Mean tumor volume ([1]; Day 34, Ex. 3 20 mg/kg) of the same compound?
**A.** 288 mm^3

**Q.** And the Mean tumor volume ([1]; Day 34, Ex. 3 60 mg/kg)?
**A.** 252 mm^3

**Q.** And the Mean tumor volume ([1]; Day 37, Ex. 3 20 mg/kg)?
**A.** 403 mm^3

**Q.** What about the Mean tumor volume ([1]; Day 37, Ex. 3 60 mg/kg) of the same compound?
**A.** 313 mm^3

**Q.** What about the Mean tumor volume ([1]; Day 41, Ex. 3 20 mg/kg) of the same compound?
**A.** 511 mm^3

**Q.** What about the Mean tumor volume ([1]; Day 41, Ex. 3 60 mg/kg) of the same compound?
**A.** 400 mm^3

**Q.** And the Mean tumor volume ([1]; Day 44, Ex. 3 20 mg/kg)?
**A.** 616 mm^3

**Q.** And the Mean tumor volume ([1]; Day 48, Ex. 3 20 mg/kg)?
**A.** 837 mm^3

**Q.** What about the Mean tumor volume ([1]; Day 48, Ex. 3 60 mg/kg) of the same compound?
**A.** 577 mm^3

**Q.** What about the Mean tumor volume ([1]; Day 51, Ex. 3 20 mg/kg) of the same compound?
**A.** 871 mm^3

**Q.** What about the Mean tumor volume ([1]; Day 51, Ex. 3 60 mg/kg) of the same compound?
**A.** 649 mm^3

**Q.** What about the “percent inhibition of tumor growth” value [1, 7] of the same compound?
**A.** 75* %

**Q.** And the “percent inhibition of tumor growth” value ([1]; Exp. 2, Example 3 20 mg/kg P.O. once daily)?
**A.** 31%

**Q.** What about the “percent inhibition of tumor growth” value ([1]; Exp. 3, Example 3 20 mg/kg P.O. once daily) of the same compound?
**A.** 28%

**Q.** What about the “percent inhibition of tumor growth” value ([1]; Exp. 3, Example 3 60 mg/kg P.O. once daily) of the same compound?
**A.** 54%

**Q.** What about the tumor growth inhibition [1] of the same compound?
**A.** 28-54%

**Q.** What about the Mean tumor volume ([2]; Day 36, Ex. 3 60 mg/kg) of the same compound?
**A.** 235 mm^3

**Q.** What about the Mean tumor volume ([2]; Day 36, Ex. 3 200 mg/kg) of the same compound?
**A.** 219 mm^3

**Q.** And the Mean tumor volume ([2]; Day 38, Ex. 3 60 mg/kg)?
**A.** 328 mm^3

**Q.** What about the Mean tumor volume ([2]; Day 38, Ex. 3 200 mg/kg) of the same compound?
**A.** 262 mm^3

**Q.** And the Mean tumor volume ([2]; Day 41, Ex. 3 60 mg/kg)?
**A.** 367 mm^3

**Q.** And the Mean tumor volume ([2]; Day 41, Ex. 3 200 mg/kg)?
**A.** 184 mm^3

**Q.** And the Mean tumor volume ([2]; Day 44, Ex. 3 60 mg/kg)?
**A.** 485 mm^3

**Q.** And the Mean tumor volume ([2]; Day 44, Ex. 3 200 mg/kg)?
**A.** 242 mm^3

**Q.** What about the Mean tumor volume ([2]; Day 49, Ex. 3 60 mg/kg) of the same compound?
**A.** 554 mm^3

**Q.** What about the Mean tumor volume ([2]; Day 49, Ex. 3 200 mg/kg) of the same compound?
**A.** 288 mm^3

**Q.** What about the Mean tumor volume ([2]; Day 52, Ex. 3 60 mg/kg) of the same compound?
**A.** 633 mm^3

**Q.** What about the Mean tumor volume ([2]; Day 52, Ex. 3 200 mg/kg) of the same compound?
**A.** 270 mm^3

**Q.** And the Mean tumor volume ([2]; Day 55, Ex. 3 60 mg/kg)?
**A.** 763 mm^3

**Q.** What about the Mean tumor volume ([2]; Day 55, Ex. 3 200 mg/kg) of the same compound?
**A.** 219 mm^3

**Q.** And the Mean tumor volume ([2]; Day 57, Ex. 3 60 mg/kg)?
**A.** 878 mm^3

**Q.** And the Mean tumor volume ([2]; Day 57, Ex. 3 200 mg/kg)?
**A.** 214 mm^3

**Q.** What about the “percent inhibition of tumor growth” value [2, 7] of the same compound?
**A.** 21%

**Q.** And the “percent inhibition of tumor growth” value ([2]; Exp. 1, Example 3 200 mg/kg P.O. once daily)?
**A.** 99* %

**Q.** And the “percent inhibition of tumor growth” value ([2]; Exp. 2, Example 3 60 mg/kg P.O. once daily)?
**A.** 58* %

**Q.** What about the “percent inhibition of tumor growth” value ([2]; Exp. 2, Example 3 200 mg/kg P.O. once daily) of the same compound?
**A.** 85* %

**Q.** And the tumor growth inhibition [2]?
**A.** 21-99%

Source: US20100010022A1, “CANCER TREATMENT METHOD” (SmithKline Beecham Corporation, priority 2004, published 2010)
